Data set [1] deals with SMN2 minigene mRNA (SMN2-A minigene) in HEK293H cells. As to the kind of experiment: SMN2 minigene mRNA splicing RT-qPCR assay in cultured cells. The data set is classed as cell-based, human. The following applies: Homo sapiens, HEK293-H; concentration increasing full length SMN2 mRNA 1.5-fold relative to vehicle-treated cells; HEK293H cells with SMN2-A minigene, 24 hours, 7-point concentration data; read-out: EC1.5x for production of full length SMN2 mRNA. In short, it runs like this:
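Stable SMN2-A minigene HEK293H; cpd 7-pt 3.16-fold series, 200× in DMSO, 24 h, 37 °C, n=2. Lysates → multiplex RT-qPCR (minigene FL + GAPDH), efficiency-corrected ΔΔCt vs vehicle. EC1.5× = 1.5-fold FL mRNA gain.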
In general terms: Quantitative PCR measures a nucleic acid by following its amplification.

Data set [2] concerns Smn protein in SMA patient fibroblast cells (GM03813). Briefly: Smn protein assay in cultured cells (SMN HTRF). The data set is classed as cell-based, human. The following applies: SMA patient fibroblast cells, 48 hours; for EC1.5x for Smn protein expression: 7-point concentration curve, SMN HTRF, concentration producing 1.5 times Smn protein vs DMSO vehicle control; for maximum fold (Fold) increase of Smn protein: 7-point concentration data, fold relative to vehicle control. In short, it runs like this: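 Fibroblasts, SMA patient; 5,000 cells/well; 7-pt curve, 3.16-fold serial dilution; 48 h, 37 °C, 5% CO2; RIPA lysis 1 h RT; anti-SMN d2 + kryptate overnight RT; HTRF 665/620 nm; fold vs DMSO; EC1.5×, max fold.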

By melting point is commonly meant the temperature of the solid-liquid transition. On to `CCc1nc(C)cn2nc(-c3cc(=O)n4cc(C5=CCNCC5)ccc4n3)cc12` [Compound 763, 2-(4-ethyl-6-methylpyrazolo[1,5-a]pyrazin-2-yl)-7-(1,2,3,6-tetrahydropyridin-4-yl)-4H-pyrido[1,2-a]pyrimidin-4-one], for which the melting point lay in the range of 287 to 289 °C. For the same compound, in data set [1], the EC (1.5-fold increase) was < 0.1 µM. Also, in data set [2], the “EC1.5x for Smn protein expression” value is “**** (an EC1.5x≤0.3 μM is indicated by four stars (****))” and the “maximum fold (Fold) increase of Smn protein” value (“maximum fold (Fold) increase” below) is “***** (a fold increase >1.65 is indicated by five stars (*****))”.
Regarding `Cc1cn2nc(-c3cc(=O)n4cc(N5CC(N6CCCCC6)C5)ccc4n3)cc2c(C)n1` [Compound 765, 2-(4,6-dimethylpyrazolo[1,5-a]pyrazin-2-yl)-7-[3-(piperidin-1-yl)azetidin-1-yl]-4H-pyrido[1,2-a]pyrimidin-4-one], the melting point was 220 to 223 °C. In data set [1], the EC (1.5-fold increase) lay within 1 to 3 µM. In data set [2], the “EC1.5x for Smn protein expression” value was “** (an EC1.5× between >1 μM and ≤3 μM is indicated by two stars (**))”; the “maximum fold (Fold) increase” value was “**** (a fold increase between >1.5 and ≤1.65 is indicated by four stars (****))”.
Consider `CCCc1nc(C)cn2nc(-c3cc(=O)n4cc(C5CCNCC5)ccc4n3)cc12` [Compound 766, 2-(6-methyl-4-propylpyrazolo[1,5-a]pyrazin-2-yl)-7-(piperidin-4-yl)-4H-pyrido[1,2-a]pyrimidin-4-one], for which the melting point is 228 to 230 °C. Further, in data set [1], the EC (1.5-fold increase) was < 0.1 µM. Besides, in data set [2], the “EC1.5x for Smn protein expression” value is listed as “**** (an EC1.5x≤0.3 μM is indicated by four stars (****))” and the “maximum fold (Fold) increase” value is recorded as “***** (a fold increase >1.65 is indicated by five stars (*****))”.
`Cc1cn2nc(-c3cc(=O)n4cc(N5CCC6(CCNC6)C5)ccc4n3)cc2c(C)n1` (centres unmarked) [Compound 767, 7-(2,7-diazaspiro[4.4]non-2-yl)-2-(4,6-dimethylpyrazolo[1,5-a]pyrazin-2-yl)-4H-pyrido[1,2-a]pyrimidin-4-one]: the melting point lay in the range of 208 to 210 °C. Also, the EC (1.5-fold increase) in data set [1] was < 0.1 µM. For the same compound, in data set [2], the “EC1.5x for Smn protein expression” value is “**** (an EC1.5x≤0.3 μM is indicated by four stars (****))” and the “maximum fold (Fold) increase” value is given as “***** (a fold increase >1.65 is indicated by five stars (*****))”.
With `Cc1cc(-c2cc(=O)n3cc(N4CCN(C)CC4)ccc3n2)cc2cn(C)nc12` [Compound 768, 2-(2,7-dimethyl-2H-indazol-5-yl)-7-(4-methylpiperazin-1-yl)-4H-pyrido[1,2-a]pyrimidin-4-one], the melting point fell in the range of 216 to 218 °C. Moreover, the EC (1.5-fold increase) in data set [1] was < 0.1 µM. In addition, in data set [2], the “EC1.5x for Smn protein expression” value is on record as “**** (an EC1.5x≤0.3 μM is indicated by four stars (****))” and the “maximum fold (Fold) increase” value is “***** (a fold increase >1.65 is indicated by five stars (*****))”.
`Cc1cn2nc(-c3cc(=O)n4cc(N5CC[C@@H](CN(C)C)C5)ccc4n3)cc2c(C)n1` [Compound 770, 7-{(3S)-3-[(dimethylamino)methyl]pyrrolidin-1-yl}-2-(4,6-dimethylpyrazolo[1,5-a]pyrazin-2-yl)-4H-pyrido[1,2-a]pyrimidin-4-one] had a melting point of 239 to 241 °C. For the same compound, the EC (1.5-fold increase) in data set [1] was < 0.1 µM. For the same compound, in data set [2], the “EC1.5x for Smn protein expression” value is “*** (an EC1.5× between >0.3 μM and ≤1 μM is indicated by three stars (***))”; the “maximum fold (Fold) increase” value is “**** (a fold increase between >1.5 and ≤1.65 is indicated by four stars (****))”.
Compound `CCc1nc(C)cn2nc(-c3cc(=O)n4cc(C5CCNCC5)cc(C)c4n3)cc12` [Compound 771, 2-(4-ethyl-6-methylpyrazolo[1,5-a]pyrazin-2-yl)-9-methyl-7-(piperidin-4-yl)-4H-pyrido[1,2-a]pyrimidin-4-one] showed a melting point of 241 to 249 °C. The EC (1.5-fold increase) in data set [1] is < 0.1 µM. In data set [2], the “EC1.5x for Smn protein expression” value is “**** (an EC1.5x≤0.3 μM is indicated by four stars (****))” and the “maximum fold (Fold) increase” value is “***** (a fold increase >1.65 is indicated by five stars (*****))”.
With `Cc1cc(C2CCNCC2)cn2c(=O)cc(-c3ccc4c(cnn4C)c3)nc12` [Compound 772, 9-methyl-2-(1-methyl-1H-indazol-5-yl)-7-(piperidin-4-yl)-4H-pyrido[1,2-a]pyrimidin-4-one], the melting point lay within 212 to 217 °C. Moreover, the EC (1.5-fold increase) in data set [1] is < 0.1 µM. Moreover, in data set [2], the “EC1.5x for Smn protein expression” value was “**** (an EC1.5x≤0.3 μM is indicated by four stars (****))” and the “maximum fold (Fold) increase” value is recorded as “***** (a fold increase >1.65 is indicated by five stars (*****))”.
Compound `Cc1cc(-c2cc(=O)n3cc(C4CCNCC4)ccc3n2)cc2cnn(C)c12` [Compound 775, 2-(1,7-dimethyl-1H-indazol-5-yl)-7-(piperidin-4-yl)-4H-pyrido[1,2-a]pyrimidin-4-one] came in with a melting point of 220 to 222 °C. Further, the EC (1.5-fold increase) in data set [1] fell in the range of 0.3 to 1 µM. For the same compound, the “maximum fold (Fold) increase” value in data set [2] is “*** (a fold increase between >1.35 and ≤1.5 is indicated by three stars (***))”.
Regarding `Cc1cc(-c2cc(=O)n3cc(N4CCNCC4)ccc3n2)cc2cnn(C)c12` [Compound 776, 2-(1,7-dimethyl-1H-indazol-5-yl)-7-(piperazin-1-yl)-4H-pyrido[1,2-a]pyrimidin-4-one], the melting point was in the range of 160 to 163 °C. Moreover, the EC (1.5-fold increase) in data set [1] is 1 to 3 µM. Also, the “maximum fold (Fold) increase” value in data set [2] is “** (a fold increase between >1.2 and ≤1.35 is indicated by two stars (**))”.
The compound `Cc1cc(-c2cc(=O)n3cc(N4CCN[C@@H](C)C4)ccc3n2)cc2cnn(C)c12` [Compound 777, 2-(1,7-dimethyl-1H-indazol-5-yl)-7-[(3S)-3-methylpiperazin-1-yl]-4H-pyrido[1,2-a]pyrimidin-4-one] showed a melting point of 248 to 250 °C. Besides, the EC (1.5-fold increase) in data set [1] is 1 to 3 µM. In data set [2], the “EC1.5x for Smn protein expression” value was “** (an EC1.5× between >1 μM and ≤3 μM is indicated by two stars (**))”; the “maximum fold (Fold) increase” value is “*** (a fold increase between >1.35 and ≤1.5 is indicated by three stars (***))”.
Compound `CCN(CC)C[C@@H]1CCN(c2ccc3nc(-c4cc5c(C)nc(C)cn5n4)cc(=O)n3c2)C1` [Compound 778, 7-{(3S)-3-[(diethylamino)methyl]pyrrolidin-1-yl}-2-(4,6-dimethylpyrazolo[1,5-a]pyrazin-2-yl)-4H-pyrido[1,2-a]pyrimidin-4-one] came in with a melting point of 194 to 196 °C. Also, the EC (1.5-fold increase) in data set [1] is < 0.1 µM. Further, in data set [2], the “EC1.5x for Smn protein expression” value is “*** (an EC1.5× between >0.3 μM and ≤1 μM is indicated by three stars (***))”; the “maximum fold (Fold) increase” value was “***** (a fold increase >1.65 is indicated by five stars (*****))”.
As to `Cc1cn2nc(-c3cc(=O)n4cc(N5CC(CN(C)C)C5)ccc4n3)cc2c(C)n1` [Compound 780, 7-{3-[(dimethylamino)methyl]azetidin-1-yl}-2-(4,6-dimethylpyrazolo[1,5-a]pyrazin-2-yl)-4H-pyrido[1,2-a]pyrimidin-4-one], the melting point is 228 to 230 °C. Besides, in data set [1], the EC (1.5-fold increase) is < 0.1 µM. In data set [2], the “EC1.5x for Smn protein expression” value is “**** (an EC1.5x≤0.3 μM is indicated by four stars (****))” and the “maximum fold (Fold) increase” value is “***** (a fold increase >1.65 is indicated by five stars (*****))”.

The record behind these values is patent US11753407B2, “Compounds for treating spinal muscular atrophy” (PTC Therapeutics, Inc., priority 2012, dated 2023).
